Patent US10758534B2 (Vertex Pharmaceuticals Incorporated, priority 2014, dated 2020)
Each block holds one compound with its values, some of them ahead of it.

Target: T1, F508del (Homo sapiens, UniProt P13569, DEL508-508)
T1 construct: expressed in transfected cells
Test: Protocol 1: membrane potential optical assay (FLIPR III, voltage sensing dye), identification of potentiator compounds
Type: cell-based
Conditions: Table 3, compounds of Table 1
Procedure, shortened: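 Mouse NIH 3T3 fibroblasts stably expressing F508del, temperature-corrected at 27 °C for 24 h, pretreated with compound, then loaded with voltage-sensing redistribution dye. Forskolin was added in a single step with a chloride gradient (chloride-free gluconate bath; Bath Solution #1 HEPES pH 7.4). Membrane-potential fluorescence read on FLIPR III.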

T1 sequence (P13569 with tags, fused parts or gaps DEL508-508): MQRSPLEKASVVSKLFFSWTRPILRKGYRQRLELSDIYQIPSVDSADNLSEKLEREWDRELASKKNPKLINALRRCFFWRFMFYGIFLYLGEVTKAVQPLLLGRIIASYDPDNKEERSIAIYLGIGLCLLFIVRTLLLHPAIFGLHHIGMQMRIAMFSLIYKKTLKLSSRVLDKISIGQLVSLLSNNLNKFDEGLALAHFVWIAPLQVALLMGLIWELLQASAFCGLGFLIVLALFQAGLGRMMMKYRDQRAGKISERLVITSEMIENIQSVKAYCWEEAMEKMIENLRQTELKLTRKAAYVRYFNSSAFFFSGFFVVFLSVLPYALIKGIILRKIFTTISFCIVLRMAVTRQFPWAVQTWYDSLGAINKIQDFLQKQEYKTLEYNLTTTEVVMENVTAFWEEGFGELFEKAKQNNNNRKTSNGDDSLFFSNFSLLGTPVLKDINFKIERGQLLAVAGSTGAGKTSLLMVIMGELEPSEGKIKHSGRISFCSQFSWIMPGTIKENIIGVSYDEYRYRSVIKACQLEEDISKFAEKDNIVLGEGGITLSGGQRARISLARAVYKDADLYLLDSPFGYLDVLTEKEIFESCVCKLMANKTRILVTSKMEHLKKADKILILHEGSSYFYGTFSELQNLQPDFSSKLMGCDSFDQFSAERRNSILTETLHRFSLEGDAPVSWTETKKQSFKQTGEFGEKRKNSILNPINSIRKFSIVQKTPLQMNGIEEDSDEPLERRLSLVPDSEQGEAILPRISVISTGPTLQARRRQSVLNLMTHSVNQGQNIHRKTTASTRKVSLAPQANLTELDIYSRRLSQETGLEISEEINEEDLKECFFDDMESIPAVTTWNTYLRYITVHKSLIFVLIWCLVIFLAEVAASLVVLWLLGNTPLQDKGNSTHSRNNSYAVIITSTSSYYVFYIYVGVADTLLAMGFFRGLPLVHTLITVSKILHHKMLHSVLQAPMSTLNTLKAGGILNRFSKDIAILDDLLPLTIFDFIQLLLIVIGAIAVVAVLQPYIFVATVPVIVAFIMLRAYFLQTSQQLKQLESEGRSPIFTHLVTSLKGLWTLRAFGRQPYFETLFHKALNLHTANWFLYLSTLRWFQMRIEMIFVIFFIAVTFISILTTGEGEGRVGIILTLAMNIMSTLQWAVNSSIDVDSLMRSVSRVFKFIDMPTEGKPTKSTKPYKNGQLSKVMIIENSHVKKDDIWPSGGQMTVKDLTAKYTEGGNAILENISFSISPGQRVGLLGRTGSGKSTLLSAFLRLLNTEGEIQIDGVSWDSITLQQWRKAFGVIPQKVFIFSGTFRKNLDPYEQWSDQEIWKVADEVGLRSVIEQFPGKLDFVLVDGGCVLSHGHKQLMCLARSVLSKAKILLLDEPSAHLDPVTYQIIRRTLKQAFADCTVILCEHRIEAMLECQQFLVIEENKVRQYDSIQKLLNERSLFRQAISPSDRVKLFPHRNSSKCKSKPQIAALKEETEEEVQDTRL

Compound: C[C@@H]1CN(c2nc(C3=CCCCO3)ccc2C(=O)NS(=O)(=O)c2cccnc2N)C(C)(C)C1 [Compound 1699, N-[(2-amino-3-pyridyl)sulfonyl]-6-(3,4-dihydro-2H-pyran-6-yl)-2-[(4S)-2,2,4-trimethylpyrrolidin-1-yl]pyridine-3-carboxamide]
- EC30: +++ (“+++” means <3 uM)

Compound: Cc1ccccc1-c1cnc(N2CC(C)CC2(C)C)c(C(=O)NS(=O)(=O)c2cccc(N)n2)c1 (stereo not shown) [Compound 1701, N-[(6-amino-2-pyridyl)sulfonyl]-5-(o-tolyl)-2-(2,2,4-trimethylpyrrolidin-1-yl)pyridine-3-carboxamide]
- EC30: +++ (“+++” means <3 uM)

Compound: Cc1cc(-c2ccc(C(=O)NS(=O)(=O)c3cccnc3N)c(N3C[C@@H](C)CC3(C)C)n2)cnc1OC(C)C [Compound 1702, N-[(2-amino-3-pyridyl)sulfonyl]-6-(6-isopropoxy-5-methyl-3-pyridyl)-2-[(4S)-2,2,4-trimethylpyrrolidin-1-yl]pyridine-3-carboxamide]
- EC30: +++ (“+++” means <3 uM)

Compound: COc1ccc(-c2ccc(C(=O)NS(=O)(=O)c3cccnc3N)c(N3C[C@@H](C)CC3(C)C)n2)c(OC)c1 [Compound 1705, N-[(2-amino-3-pyridyl)sulfonyl]-6-(2,4-dimethoxyphenyl)-2-[(4S)-2,2,4-trimethylpyrrolidin-1-yl]pyridine-3-carboxamide]
- EC30: +++ (“+++” means <3 uM)

Compound: COc1ccc(-c2ccc(C(=O)NS(=O)(=O)c3cccnc3N)c(N3C[C@@H](C)CC3(C)C)n2)c(CO)c1 [Compound 1707, N-[(2-amino-3-pyridyl)sulfonyl]-6-[2-(hydroxymethyl)-4-methoxy-phenyl]-2-[(4S)-2,2,4-trimethylpyrrolidin-1-yl]pyridine-3-carboxamide]
- EC30: ++ (“++” means between 3 uM and 10 uM)

Compound: CC1CN(c2ncccc2C(=O)NS(=O)(=O)c2cccc(N3CCC(c4ccccc4)C3)n2)C(C)(C)C1 (stereo not shown) [Compound 1708, N—[[6-(3-phenylpyrrolidin-1-yl)-2-pyridyl]sulfonyl]-2-(2,2,4-trimethylpyrrolidin-1-yl)pyridine-3-carboxamide]
- EC30: +++ (“+++” means <3 uM)

Compound: CC(C)Oc1ccn(-c2ccc(C(=O)NS(=O)(=O)c3cccc(N)n3)c(N3C[C@@H](C)CC3(C)C)n2)n1 [Compound 1709, N-[(6-amino-2-pyridyl)sulfonyl]-6-(3-isopropoxypyrazol-1-yl)-2-[(4S)-2,2,4-trimethylpyrrolidin-1-yl]pyridine-3-carboxamide]
- EC30: +++ (“+++” means <3 uM)

Compound: CCCN(C)c1cccc(S(=O)(=O)NC(=O)c2cccnc2N2CC(C)CC2(C)C)n1 (stereo not shown) [Compound 1711, N—[[6-[methyl(propyl)amino]-2-pyridyl]sulfonyl]-2-(2,2,4-trimethylpyrrolidin-1-yl)pyridine-3-carboxamide]
- EC30: +++ (“+++” means <3 uM)

Compound: C[C@@H]1CN(c2nc(-c3ccc(O)cc3)ccc2C(=O)NS(=O)(=O)c2cccnc2N)C(C)(C)C1 [Compound 1712, N-[(2-amino-3-pyridyl)sulfonyl]-6-(4-hydroxyphenyl)-2-[(4S)-2,2,4-trimethylpyrrolidin-1-yl]pyridine-3-carboxamide]
- EC30: +++ (“+++” means <3 uM)

Compound: C[C@@H]1CN(c2nc(-c3cnc4[nH]ccc4c3)ccc2C(=O)NS(=O)(=O)c2cccnc2N)C(C)(C)C1 [Compound 1714, N-[(2-amino-3-pyridyl)sulfonyl]-6-(1H-pyrrolo[2,3-b]pyridin-5-yl)-2-[(4S)-2,2,4-trimethylpyrrolidin-1-yl]pyridine-3-carboxamide]
- EC30: ++ (“++” means between 3 uM and 10 uM)

Compound: CCOCCOCCOc1ncc(-c2ccc(C(=O)NS(=O)(=O)c3cccc(N)n3)c(N3C[C@@H](C)CC3(C)C)n2)cc1C [Compound 1715, N-[(6-amino-2-pyridyl)sulfonyl]-6-[6-[2-(2-ethoxyethoxy)ethoxy]-5-methyl-3-pyridyl]-2-[(4S)-2,2,4-trimethylpyrrolidin-1-yl]pyridine-3-carboxamide]
- EC30: +++ (“+++” means <3 uM)

Compound: COc1ccc(CN(C)c2cccc(S(=O)(=O)NC(=O)c3cccnc3N3CC(C)CC3(C)C)n2)cc1 (stereo not shown) [Compound 1717, N—[[6-[(4-methoxyphenyl)methyl-methyl-amino]-2-pyridyl]sulfonyl]-2-(2,2,4-trimethylpyrrolidin-1-yl)pyridine-3-carboxamide]
- EC30: +++ (“+++” means <3 uM)

Compound: CC1CN(c2ncccc2C(=O)NS(=O)(=O)c2cccc(OC(C)(C)C)n2)C(C)(C)C1 (stereo not shown) [Compound 1718, N-[(6-tert-butoxy-2-pyridyl)sulfonyl]-2-(2,2,4-trimethylpyrrolidin-1-yl)pyridine-3-carboxamide]
- EC30: +++ (“+++” means <3 uM)

Compound: COc1cc(C)cc(Oc2cccc(S(=O)(=O)NC(=O)c3cccnc3N3CC(C)CC3(C)C)n2)c1 (stereo not shown) [Compound 1719, N—[[6-(3-methoxy-5-methyl-phenoxy)-2-pyridyl]sulfonyl]-2-(2,2,4-trimethylpyrrolidin-1-yl)pyridine-3-carboxamide]
- EC30: +++ (“+++” means <3 uM)

Compound: CC1CN(c2ncccc2C(=O)NS(=O)(=O)c2cccc(Oc3ccccc3C#N)n2)C(C)(C)C1 (stereo not shown) [Compound 1720, N—[[6-(2-cyanophenoxy)-2-pyridyl]sulfonyl]-2-(2,2,4-trimethylpyrrolidin-1-yl)pyridine-3-carboxamide]
- EC30: +++ (“+++” means <3 uM)

Compound: CC1CN(c2ncc(-c3cc(Cl)cc(Cl)c3)cc2C(=O)NS(=O)(=O)c2cccc(N)n2)C(C)(C)C1 (stereo not shown) [Compound 1721, N-[(6-amino-2-pyridyl)sulfonyl]-5-(3,5-dichlorophenyl)-2-(2,2,4-trimethylpyrrolidin-1-yl)pyridine-3-carboxamide]
- EC30: +++ (“+++” means <3 uM)

Compound: CC(C)COc1cc(F)cc(-c2ccc(C(=O)NS(=O)(=O)c3cccc(N)n3)c(NCC3(CC(C)(C)O)CC3)n2)c1 [Compound 1723, N-[(6-amino-2-pyridyl)sulfonyl]-6-(3-fluoro-5-isobutoxy-phenyl)-2-[[1-(2-hydroxy-2-methyl-propyl)cyclopropyl]methylamino]pyridine-3-carboxamide]
- EC30: +++ (“+++” means <3 uM)

Compound: CC(C)COc1cc(F)cc(-c2ccc(C(=O)NS(=O)(=O)c3cccc(N)n3)c(N3CC[C@H](C)[C@H](C)C3)n2)c1 [Compound 1724]
- EC30: +++ (“+++” means <3 uM)

Compound: C[C@@H]1CN(c2nc(-c3ccccc3)ccc2C(=O)NS(=O)(=O)N2CC[C@H](N)C2)C(C)(C)C1 [Compound 1725, N-[(3S)-3-aminopyrrolidin-1-yl]sulfonyl-6-phenyl-2-[(4S)-2,2,4-trimethylpyrrolidin-1-yl]pyridine-3-carboxamide]
- EC30: ++ (“++” means between 3 uM and 10 uM)

More lines, now with the values ahead:

- EC30: +++ (“+++” means <3 uM)
Compound: CCOCCOCCOc1cc(C)cc(-c2ccc(C(=O)NS(=O)(=O)c3cccc(N)n3)c(N3C[C@@H](C)CC3(C)C)n2)n1 [Compound 1696, N-[(6-amino-2-pyridyl)sulfonyl]-6-[6-[2-(2-ethoxyethoxy)ethoxy]-4-methyl-2-pyridyl]-2-[(4S)-2,2,4-trimethylpyrrolidin-1-yl]pyridine-3-carboxamide]

- EC30: +++ (“+++” means <3 uM)
Compound: CCOCCOc1cc(C)cc(-c2ccc(C(=O)NS(=O)(=O)c3cccc(N)n3)c(N3C[C@@H](C)CC3(C)C)n2)n1 [Compound 1700, N-[(6-amino-2-pyridyl)sulfonyl]-6-[6-(2-ethoxyethoxy)-4-methyl-2-pyridyl]-2-[(4S)-2,2,4-trimethylpyrrolidin-1-yl]pyridine-3-carboxamide]

- EC30: +++ (“+++” means <3 uM)
Compound: Cc1cc(OCCOC(C)C)nc(-c2ccc(C(=O)NS(=O)(=O)c3cccc(N)n3)c(N3C[C@@H](C)CC3(C)C)n2)c1 [Compound 1703, N-[(6-amino-2-pyridyl)sulfonyl]-6-[6-(2-isopropoxyethoxy)-4-methyl-2-pyridyl]-2-[(4S)-2,2,4-trimethylpyrrolidin-1-yl]pyridine-3-carboxamide]

- EC30: +++ (“+++” means <3 uM)
Compound: CC1CN(c2ncccc2C(=O)NS(=O)(=O)c2cccc(OCCc3ccc(F)cc3)n2)C(C)(C)C1 (stereo not shown) [Compound 1704, N—[[6-[2-(4-fluorophenyl)ethoxy]-2-pyridyl]sulfonyl]-2-(2,2,4-trimethylpyrrolidin-1-yl)pyridine-3-carboxamide]

- EC30: ++ (“++” means between 3 uM and 10 uM)
Compound: C[C@@H]1CN(c2nc(-c3ccccc3CO)ccc2C(=O)NS(=O)(=O)c2cccnc2N)C(C)(C)C1 [Compound 1706, N-[(2-amino-3-pyridyl)sulfonyl]-6-[2-(hydroxymethyl)phenyl]-2-[(4S)-2,2,4-trimethylpyrrolidin-1-yl]pyridine-3-carboxamide]

- EC30: +++ (“+++” means <3 uM)
Compound: C[C@@H]1CN(c2nc([C@H]3CC[C@H](C(F)(F)F)CC3)ccc2C(=O)NS(=O)(=O)c2ccc[nH]c2=O)C(C)(C)C1 [Compound 1710, N-[(2-oxo-1H-pyridin-3-yl)sulfonyl]-6-[4-(trifluoromethyl)cyclohexyl]-2-[(4S)-2,2,4-trimethylpyrrolidin-1-yl]pyridine-3-carboxamide]

- EC30: +++ (“+++” means <3 uM)
Compound: Cc1cccc(-c2ccc(C(=O)NS(=O)(=O)c3cccnc3N)c(N3C[C@@H](C)CC3(C)C)n2)c1C [Compound 1713, N-[(2-amino-3-pyridyl)sulfonyl]-6-(2,3-dimethylphenyl)-2-[(4S)-2,2,4-trimethylpyrrolidin-1-yl]pyridine-3-carboxamide]

- EC30: ++ (“++” means between 3 uM and 10 uM)
Compound: C[C@@H]1CN(c2nc(-c3cc(F)cc(F)c3)ccc2C(=O)NS(=O)(=O)N2CC[C@H](N)C2)C(C)(C)C1 [Compound 1716, N-[(3S)-3-aminopyrrolidin-1-yl]sulfonyl-6-(3,5-difluorophenyl)-2-[(4S)-2,2,4-trimethylpyrrolidin-1-yl]pyridine-3-carboxamide]

- EC30: +++ (“+++” means <3 uM)
Compound: CC1CN(c2ncccc2C(=O)NS(=O)(=O)c2cccc(Nc3ccc(C(C)C)cc3)n2)C(C)(C)C1 (stereo not shown) [Compound 1722, N—[[6-(4-isopropylanilino)-2-pyridyl]sulfonyl]-2-(2,2,4-trimethylpyrrolidin-1-yl)pyridine-3-carboxamide]
